Columns and labels:
[1] = IV and PO pharmacokinetics in mice; type: in vivo, C57BL/6 male mice; settings: male; for AUC(0-t) / half-life / C0 / Tmax / Cmax: mouse plasma; for C0 / Cmax: read-out: C0/Cmax; for bioavailability: C57BL/6, mouse, plasma, oral, 10 mg/kg, PO 10 mpk vs IV 1 mpk, read-out: %F (oral bioavailability); for bioavailability / clearance / Vd: mouse; for clearance / Vd: C57BL/6, plasma, 1 mg/kg; for Vd: read-out: Vss
Protocol: IV and PO PK in rodents were processed by Sai Life Sciences Pvt. Ltd using 8‐ to 10‐week‐old C57BL/6 male mice following a single intravenous administration at 1 mg/kg and oral administration at 10 mg/kg. A total of eighteen mice (n = 9/group) were divided into two groups as Group 1 and Group 2, with a sparse sampling design (3 mice/time points). Animals in Group 1 were administered intravenously as slow bolus injections through the tail vein at 1 mg/kg dose, and animals in Group 2 were administered through the oral route at 10 mg/kg. For 0043, the formulation vehicle used for IV group was 5% NMP, 10% PG, 5% Solutol HS‐15, and 80% Captisol (10% w/v in RO water), and the formulation used for the PO group was 10% NMP, 10% PG, 10% TPGS, and 70% Captisol (10% w/v in RO water). For 0152, the formulation vehicle used for IV group was 5% DMSO, 20% Solutol HS‐15, and 75% PBS, and the formulation used for PO group was 5% NMP, 10% PG, 5% Solutol HS‐15, and 80% Captisol (10% w/v in RO water). Blood samples (approximately 60 µL) were collected under light isoflurane anesthesia (Surgivet) from retro orbital plexus from a set of three mice at 0.08, 0.25, 0.5, 1, 2, 4, 6, 8 and 24 h for IV and […], 0.5, 1, 2, 4, 6, 8 and 24 h for PO. Immediately after blood collection, plasma was harvested by centrifugation at 10 000 rpm, 10 min at […], and samples were stored at ‐70±10°C until bioanalysis. All samples were processed for analysis by the protein precipitation method and analyzed with a fit‐for‐purpose LC‐MS/MS method (LLOQ = 1.01 ng/mL). The plasma pharmacokinetic parameters were estimated using the non‐compartmental analysis tool of Phoenix WinNonlin software (Ver 8.3).

LN229 and HCT116 cells = test: Cancer cell viability; type: cell-based, human
[2] = Brain/plasma ratio in mice; type: in vivo, male C57BL/6 mice; settings: male, C57BL/6, brain, 10 mg/kg; mouse, PO, 10 mpk; read-out: B/P-Kp (brain-to-plasma partition coefficient)
Protocol: Brain/Plasma Ratio test was processed by Sai Life Sciences Pvt. Ltd. Briefly, twelve male C57BL/6 mice were administered orally with solution formulation of 0152 at 10 mg/kg dose. Blood samples (approximately 60 µL) were collected under light isoflurane anesthesia from a set of three mice at 0.25, 0.5, 1, and 2 h. The blood samples were collected at each time point in labelled micro centrifuge tube containing K2EDTA as anticoagulant. Plasma was harvested by centrifugation of blood and stored at ‐70±10°C until analysis. Immediately after collecting blood, animals were anesthetized, perfused using 10 mL phosphate buffer saline, and brain samples were collected from each mouse at respective time points. Brain samples were homogenized using ice‐cold phosphate buffer saline (pH 7.4), and homogenates were stored below ‐70±10°C until analysis. Total homogenate volume was three times the brain weight. The plasma and brain concentration‐time data of 0152 were used for calculation. Plasma and brain samples were quantified by fit‐for‐purpose LC‐MS/MS method.

CAPRIN1 and APP = molecular target: T1, CAPRIN1 and APP (Homo sapiens, UniProt P05067+Q14444); test: Streptavidin pull-down with biotinylated 0152 in AG27606-N lysates; type: binding
T1 construct: endogenous in cells; host or cells: AG27606-Ns, sAD2.3-Ns (iPSC-derived neurons) and their lysates

3R‐APP695‐HiBiT = molecular target: T2, 3R‐APP695‐HiBiT (Homo sapiens, UniProt P05067, K724R/K725R/K726R); test: HiBiT luminescence and Aβ42 ELISA in 3R-APP695-HiBiT HEK cells; type: cell-based; settings: KKK motif K649–K651 replaced by arginines, 72 h
T2 construct: expressed in transfected cells
Text: To validate this interaction, we co‐expressed the C‐terminal domain of APP (HiBiT‐tagged C99) and the N‐terminus of FLAG‐tagged CAPRIN1 (residues 1–250) in HEK cells. Flag IP followed by western blotting confirmed the interaction between CAPRIN1 and APP (Figure 4H). To further delineate the interaction interface, we focused on a lysine‐rich (KKK) motif (K649–K651) within APP as a potential CAPRIN1‐interacting region, given its location within the cytosolic domain of C99 and its enrichment in basic residues that may mediate protein–protein interactions. To assess the functional relevance of this interaction in compound activity, we generated an APP695‐3R mutant, replacing the KKK motif (K649‐K651) with arginines by site‐directed mutagenesis. […] To further assess the role of this motif in APP‐CAPRIN1 interaction, we performed co‐immunoprecipitation experiments comparing WT‐ and 3R‐APP695‐HiBiT.
HEK293 cells were purchased from the American Type Culture Collection (ATCC). Lentiviral plasmids (pLV‐Hygro‐CMV‐hAPP, pLV‐Hygro‐CMV‐hAPP‐Hibit, and pLV‐Hygro‐CMV‐hAPP ‐3K to 3R‐Hibit) for APP695WT HEK293 and APP695‐Hibit HEK293 were generated in the third‐generation plasmid. […] Once expanded, clones were analyzed by ELISA for amyloid beta 42 (Aβ42), western blot for APP expression, and Hibit‐lytic assay (Promega). […]

SMILES | AUC(0-t) ([1]; C57BL/6, 1 mg/kg, IV, 1 mpk) [ng·h/mL] | half-life ([1]; C57BL/6, 1 mg/kg, IV, 1 mpk) [min] | C0 ([1]; C57BL/6, 1 mg/kg, IV, 1 mpk) [ng/mL] | AUC(0-t) ([1]; C57BL/6, 10 mg/kg, PO, 10 mpk) [ng·h/mL] | Tmax ([1]; C57BL/6, 10 mg/kg, PO, 10 mpk) [min] | half-life ([1]; C57BL/6, 10 mg/kg, PO, 10 mpk) [min] | Cmax ([1]; C57BL/6, 10 mg/kg, PO, 10 mpk) [ng/mL] | bioavailability [1] [%] | clearance ([1]; IV, 1 mpk) [mL/min/kg] | Vd ([1]; IV, 1 mpk) [L/kg] | Cancer cell growth (LN229 and HCT116 cells) | Kp [2] | Competition of the 0152-biotin pull-down by excess free compound (CAPRIN1 and APP) | Response of 3R-APP695-HiBiT cells (HiBiT luminescence, Aβ42 ELISA) (3R‐APP695‐HiBiT)
N#Cc1cccc(NC(=O)Nc2nc3ccc(C(=O)N4CCOCC4)cc3s2)c1 [compound 0043] | 219 | 9.6 | 1380 | 107 | 15 | 95.4 | 97.5 | 5 | 75.3 | 0.77 | no effects |  |  | 
COc1cccc(NC(=O)Nc2nc3ccc(C(=O)N4CCOCC4)cc3s2)c1 [compound 0152] | 209 | 25.2 | 938 | 624 | 30 | 144 | 804 | ≤ 30 | 78.6 | 1.34 |  | 0.03 | competitively inhibited | no response
